Reference: patent US6352709B1, “Localized use of nitric oxide-adducts to prevent internal tissue damage” (NitroMed, Inc., priority 1993, dated 2002)

What was measured:
[1] = system: balloon-injured rabbit femoral artery; assay: [125I]-S-NO-BSA binding to balloon-injured femoral artery; type: in vivo
Method: Rabbit femoral arteries were isolated and balloon-injured as described in Example 1 and [^125I]-S-NO-BSA applied either directly into the injured artery (local) or injected intraarterially via the opposite femoral artery (systemic). [^125I]-S-NO-BSA binding was determined by quantification of radioactivity after flow was reestablished for a period of 15 minutes. Non-specific [^125I]-S-NO-BSA binding (sham) was determined from uninjured carotid artery harvested simultaneously with femoral arteries. Data are presented as mean +/− SEM per gram of wet tissue weight, and are derived from four animals. *P<0.0.029, local vs. systemic delivery and +/+P<0.05, systemic injured vs. sham.
Preparation of [^125I]-labeled S-NO-BSA and [^111In] labeled platelets: BSA (0.1 mg/ml) was combined with two IODO-BEADS and 0.1 mCi of Na[^125I]. The solution was incubated for 45 minutes and unincorporated Na[^125I] was removed by gel filtration with Sephadex G25 equilibrated with TBS containing 0.1 mg/ml BSA. […] [^111In]-labeling of platelets was performed after the method of Wistow and colleagues.^(17)
(§1) Animal Preparation: All animal preparations were performed within the institutional guidelines of the Brockton/West Roxbury Department of Veteran Affairs Medical Center and Boston University Medical Center, and in accordance with the guiding principles of the American Physiological Society. New Zealand white rabbits (3.5-4.2 kg) of either sex were premedicated with 5 mg/kg intramuscular (IM) xylazine hydrochlolide (Miles Pharmaceuticals, Shawnee Mission, Kans.), and 0.1 mg/kg subcutaneous (SC) atropine sulfate (Lyphomed, Deerfield, Ill.) fifteen minutes prior to the induction of anesthesia. Anesthesia was induced with 40 mg/kg IM ketamine hydrochloride (Fort Dodge Laboratories, Fort Dodge, Ind.) and 5 mg/kg IM acepromazine maleate (Aveco Company, Inc., Fort Dodge, Ind.). Additional doses of ketamine hydrochloride were administered as necessary to maintain anesthesia. For survival studies, 100,000 U penicillin G (Apothecon of Bristol-Myers Squibb, Princeton, N.J.), was administered IM perioperatively. […]

platelet cGMP = assay: Platelet cGMP in platelet-rich plasma exposed ex vivo to treated vessel rings; type: cell-based, human; details: one-minute exposure of PRP to treated vessel rings, 10 μM isobutylmethylxanthine, n=14
Method: Rabbit femoral arteries were isolated and balloon-injured as described with reference to FIG. 4. After paired local administration of polythiolated S-nitroso-albumin and polythiolated albumin for 15 minutes, the vessels were harvested and divided into 2 mm rings. The rings were then immersed in 100 μl of platelet-rich plasma containing 10 μM 3-isobutyl-1-methylxanthine and were incubated for 1 minute ex-vivo. An equal volume of ice-cold 10% trichloroacetic acid was added to each aliquot and the sample vortexed. Platelet cGMP assay was then performed as described in “Methods.” Data are expressed as mean +/− SEM. *P<0.05.
cGMP analysis: Whole blood was obtained from fasting human volunteers and platelet-rich plasma (PRP) was prepared by centrifugation. Platelet counts were determined using a Coulter counter model ZM (Coulter Diagnostics, Hileah, Fla.). After balloon injury and treatment with pS-NO-BSA or PS-BSA, arterial segments were harvested and 2-mm segments were incubated with 100 μl of PRP containing 10 μM isobutylmethylxanthine. After 1 minute, an equal volume of ice-cold 10% trichloroacetic acid was added to each aliquot and the sample vortexed. Enzyme-linked immunoassay of cGMP was then performed (Cayman Chemical Company, Ann Arbor, Mich.). […]

[2] = system: balloon-injured rabbit femoral artery; assay: Neointimal proliferation after balloon injury of femoral artery (morphometry); type: in vivo
Method: Femoral arteries were isolated and balloon injured as described below. pS-BSA or pS-NO-BSA were applied in a paired fashion directly into the arterial lumen for 15 minutes and then blood flow was re-established. […] Neointimal proliferation is reported as the absolute neointimal area in FIG. 5A and as a ratio of neointima/media in FIG. 5B in 4-6 segments from each artery. Data are expressed as mean +/− SEM and are derived from 15 vessels in the BSA and S-NO-BSA groups, 11 vessels in the PS-BSA group, 7 vessels in the PS-NO-BSA and SHAM groups, and 5 in the SNP group. *P<0.05, pS-NO-BSA vs. PS-BSA. +/+P<0.05 Sodium nitroprusside vs. pS-BSA for both FIGS. 5A and 5B.
Animal Preparation: All animal preparations were performed within the institutional guidelines of the Brockton/West Roxbury Department of Veteran Affairs Medical Center and Boston University Medical Center, and in accordance with the guiding principles of the American Physiological Society. New Zealand white rabbits (3.5-4.2 kg) of either sex were premedicated with 5 mg/kg intramuscular (IM) xylazine hydrochlolide (Miles Pharmaceuticals, Shawnee Mission, Kans.), and 0.1 mg/kg subcutaneous (SC) atropine sulfate (Lyphomed, Deerfield, Ill.) fifteen minutes prior to the induction of anesthesia. Anesthesia was induced with 40 mg/kg IM ketamine hydrochloride (Fort Dodge Laboratories, Fort Dodge, Ind.) and 5 mg/kg IM acepromazine maleate (Aveco Company, Inc., Fort Dodge, Ind.). Additional doses of ketamine hydrochloride were administered as necessary to maintain anesthesia. For survival studies, 100,000 U penicillin G (Apothecon of Bristol-Myers Squibb, Princeton, N.J.), was administered IM perioperatively. The skin over the femoral arteries was next infiltrated with 1% lidocaine (Astra Pharmaceuticals, Inc., Westborough, Mass.) and the common femoral arteries were exposed from the inguinal ligament to the superficial femoral artery. Arteries were cleared of connective tissue, side branches were ligated, and the superficial femoral artery was suspended with silk ties. A 1.5-to-2.0 cm length of femoral artery was isolated from the circulation proximally and distally with neurosurgical microaneurysm clips. The superficial femoral-artery was cannulated with a 2F Fogarty balloon catheter (American Edwards Laboratories, Santa Ana, Calif.) that was passed into the isolated segment of femoral artery. The balloon was inflated with sufficient air to generate slight resistance and withdrawn three times. A 20 g angiocath was then inserted in the arteriotomy and 1 ml of 25.8 mg/ml PS-NO-BSA or 49.2 mg/ml S-NO-BSA was administered over 15 minutes. The contralateral femoral artery was prepared identically and an appropriate control (25.8 mglml pS-BSA, 49.2 mg/ml BSA or 0.66 mg/ml sodium nitroprusside) was administered. For binding studies, 0.5 ml of [^125I]-labeled nitrosylated albumin or control was administered. Following administration of the agent, the superficial femoral artery was ligated and flow reestablished. Sham-operated animals underwent surgical exposure and sidebranch ligation, but no balloon injury was performed or local delivery administered. The area of balloon injury was marked by surgical staples in the adjacent muscle fascia. For chronic studies, the incision was closed with subcuticular absorbable suture and the animals allowed to recover. For acute studies, blood was allowed to circulate through the treated areas for 15 minutes prior to vessel harvest. In some experiments, a distant control vessel, the right carotid artery, was isolated and harvested without any other manipulation.
A 7F plastic cannula was inserted into the abdominal aorta and the vessels perfused clear with saline followed by fixation at 100 mm Hg pressure with 10% buffered formalin. The vessels were stored in 10% buffered formalin and the samples paraffin-embedded and microtome-sectioned. […]

[3] = system: [^111In]-labeled platelets; assay: [111In]-labeled platelet binding to balloon-injured femoral arteries; type: in vivo, rabbit; details: for adhesion of [^111In]-labelled platelets to injured vessels: local administration 15 minutes, 15 minutes recirculation, n=6
Method: Femoral arteries were isolated and balloon injured as described in Example 1. During paired local administration of polythiolated S-nitroso-albumin and polythiolated albumin, [^111In]-labeled platelets were administered intravenously and allowed to circulate after flow was reestablished in the treated arteries. [^111In]-labeled platelet binding was determined by quantification of radioactivity after flow was re-established for a period of 15 minutes. Non-specific [^111In]-labeled platelet binding (Uninjured Carotid Artery) was determined from uninjured carotid artery harvested with femoral arteries. Data are presented as mean +/− SEM per gram of wet tissue weight and are derived from six animals. *P<0.05, PS-BSA vs. pS-NO-BSA.
as §1, with “perioperatively. The skin over the femoral arteries was next infiltrated with 1% lidocaine (Astra Pharmaceuticals, Inc., Westborough, Mass.) and the common femoral arteries were exposed from the inguinal ligament to the superficial femoral artery.” for “perioperatively.”

vessel cGMP = assay: Vessel tissue cGMP after local treatment of balloon-injured artery; type: in vivo, rabbit; details: treated balloon-injured vessel segments, n=3
Method: cGMP analysis: Whole blood was obtained from fasting human volunteers and platelet-rich plasma (PRP) was prepared by centrifugation. Platelet counts were determined using a Coulter counter model ZM (Coulter Diagnostics, Hileah, Fla.). After balloon injury and treatment with pS-NO-BSA or PS-BSA, arterial segments were harvested and 2-mm segments were incubated with 100 μl of PRP containing 10 μM isobutylmethylxanthine. After 1 minute, an equal volume of ice-cold 10% trichloroacetic acid was added to each aliquot and the sample vortexed. Enzyme-linked immunoassay of cGMP was then performed (Cayman Chemical Company, Ann Arbor, Mich.). Separate 2 mm vessel segments were also assayed for tissue CGMP after treatment with ice-cold 10% trichloroacetic acid and sonication (Heat Systems-Utrasonics, Inc., Plainview, N.Y.).

[4] = system: proliferating cell nuclear antigen; assay: PCNA staining of proliferating cells 7 days after balloon injury; type: in vivo, rabbit; details: 7 days after injury
Method: In a separate set of animals, vessels were perfusion-fixed with 10% buffered formalin seven days after injury and processed for analysis of proliferating cells within 12 hours as described above. Sections were stained for proliferating cell nuclear antigen and adjacent sections were stained with hematoxylin and eosin. Five representative sections from each segment were examined. Total nuclei were counted from the hematoxylin and eosin slides and percent PCNA positive cells were defined as the number of PCNA-positive nuclei divided by the total number of nuclei multiplied by 100.

[5] = 14 days after balloon injury, local delivery 15 minutes
[6] = 14 days after balloon injury, n=7

[^125I]-S-NO-BSA: [125I]-labeled S-nitroso-albumin used for binding studies
binding to injured femoral artery, local delivery ([1]; applied directly into injured artery, 15 minutes flow, n=4): 140.4+/−3.9 ×10^3 cpm/gm | binding to injured femoral artery, systemic delivery ([1]; injected intraarterially via opposite femoral artery, 15 minutes flow, n=4): 5.4+/−0.9 ×10^3 cpm/gm | increase in binding, local vs systemic delivery ([1]; injured femoral artery): 26 fold

pS-BSA: thiolated bovine serum albumin, non-nitrosylated control for pS-NO-BSA [reference compound]
platelet cGMP (platelet cGMP): 4.11+/−0.9 pmol 10^8 platelets | neointima/media ratio ([2]; 7 days after injury, n=5): 0.068±0.027 | neointimal area ([2]; 7 days after injury, n=5): 0.258+/−0.19 ×10^5 μm^2 | neointima/media ratio [2, 5]: 0.85+/−0.122 | neointimal area [2, 5]: 2.24+/−0.328 ×10^5 μm^2 | adhesion of [^111In]-labelled platelets to injured vessels [3]: 71.3+/−40.4 ×10^3 cpm/gm | vessel cGMP levels (vessel cGMP): 0.283+/−0.23 pmol/mg protein | percent of proliferating (PCNA positive) cells [4]: 30.1% +/−5.9

pS-NO-BSA: polythiolated S-nitroso-albumin; thiolated BSA nitrosylated with NaNO2 in HCl
platelet cGMP (platelet cGMP): 19.9+/−3.3 pmol 10^8 platelets | neointima/media ratio ([2]; 7 days after injury, n=5): 0.032±0.005 | neointimal area ([2]; 7 days after injury, n=5): 0.124±0.06 ×10^5 μm^2 | neointima/media ratio [2, 5]: 0.196 +/−0.66 | neointimal area [2, 5]: 0.41+/−0.11 ×10^5 μm^2 | reduction of neointima/media ratio vs control [2, 6]: 77% | reduction of neointimal area vs control [2, 6]: 81% | adhesion of [^111In]-labelled platelets to injured vessels [3]: 16.3+/−6.2 ×10^3 cpm/gm | reduction of platelet adhesion compared to control ([3]; local administration, injured femoral artery): over four-fold | vessel cGMP levels (vessel cGMP): 0.48+/−0.46 pmol/mg protein | percent of proliferating (PCNA positive) cells [4]: 37.8% +/−5.9
